# Reference: patent US11179412B2, “Methods of treating conditions involving elevated inflammatory response” (University of Pittsburgh—Of the Commonwealth System of …, priority 2017, dated 2021)
# Counter-ions that a name gives are not always drawn.
# Test system: STING activation (IFNβ release) in iBMDMs
# Assay: IFNβ release ELISA after STING ligand (or LPS) stimulation, iBMDMs
# Format: cell-based, mouse
# Conditions: iBMDMs, 3′3′-cGAMP 10 μg/ml, 16 hours, compound 10 μM
# Procedure, shortened: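 IFNβ released into the medium was quantified by ELISA (mouse or human kit) after iBMDM stimulation with the canonical STING agonist 3′3′-cGAMP or with LPS.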
Structure (SMILES),fold increase in IFN-β release [fold],further results
COc1cc2c(cc1-c1c(C)noc1C)ncc1[nH]c(=O)n([C@H](C)c3ccccn3)c12 [I-BET151 (GSK1210151A)],0.40,
O=C1[C@H](Cc2ccc(O)cc2)N2C(=O)CCN(C(=O)NCc3ccccc3)[C@H]2CN1Cc1cccc2ccccc12 [ICG-001],0.10,
O=C(c1ccc(Nc2nccc(-c3cc4ccccc4s3)n2)cc1)N1CCC(N2CCCC2)CC1 [IKK-16 (IKK Inhibitor VII)],1.16,
O=C(Nc1cc(C(F)(F)F)cc(C(F)(F)F)c1)c1cc(Cl)ccc1O [IMD 0354],0.86,
O=C(O)CNC(=O)c1c(O)c2ccccc2n(Cc2ccccc2)c1=O [IOX2],0.44,
Oc1ccc2ccccc2c1SSc1c(O)ccc2ccccc12 [IPA-3],0.35,
Cc1ccc2nc(NC(=O)CSc3nc4c(c(=O)n3-c3ccccc3)SCC4)sc2c1 [IWP-2],3.84,
"C=CC(=O)N1CCC[C@@H](n2nc(-c3ccc(Oc4ccccc4)cc3)c3c(N)ncnc32)C1 [Ibrutinib (PCI-32765), Ibrutinib]",0.53,
C#Cc1cccc(Nc2ncnc3cc4c(cc23)OCCOCCOCCO4)c1 [Icotinib],0.57,
"CNC(=O)[C@H](Cc1c[nH]c2ccccc12)NC(=O)[C@@H](CC(=O)NO)CC(C)C [Ilomastat (GM6001, Galardin), Ilomastat]",1.81,
"Cc1ccc(NC(=O)c2ccc(CN3CCN(C)CC3)cc2)cc1Nc1nccc(-c2cccnc2)n1 [Imatinib (STI571), Imatinib]",1.04,
CCOC(=O)[C@H](CCc1ccccc1)N[C@@H](C)C(=O)N1C(=O)N(C)C[C@H]1C(=O)O [Imidapril HCl],3.20,
"NC(=O)c1ccc(I)c([N+](=O)[O-])c1 [Iniparib (BSI-201), Iniparib]",0.23,
CCc1c2c(nc3ccc(OC(=O)N4CCC(N5CCCCC5)CC4)cc13)-c1cc3c(c(=O)n1C2)COC(=O)[C@]3(O)CC [Irinotecan HCl Trihydrate],,fold increase in IFN-β release (HCl Trihydrate): 0.51 fold
CCc1c2c(nc3ccc(OC(=O)N4CCC(N5CCCCC5)CC4)cc13)-c1cc3c(c(=O)n1C2)COC(=O)[C@]3(O)CC [Irinotecan],1.13,
CC1=C(/C=C/C(C)=C/C=C/C(C)=C\C(=O)O)C(C)(C)CCC1 [Isotretinoin],0.10,
"Cc1ccc(C(=O)N(CCCN)[C@@H](c2nc3cc(Cl)ccc3c(=O)n2Cc2ccccc2)C(C)C)cc1 [Ispinesib (SB-715992), Ispinesib]",2.12,
CCn1c(=O)c2c(nc(/C=C/c3ccc(OC)c(OC)c3)n2C)n(CC)c1=O [Istradefylline],1.90,
"CC(C)(C)c1cc(C(C)(C)C)c(NC(=O)c2c[nH]c3ccccc3c2=O)cc1O [Ivacaftor (VX-770), Ivacaftor]",1.27,
O=C(Nc1ccccc1)N1CCN(c2nc(-c3ccccc3)ns2)CC1 [JNJ-1661010],1.03,
N#Cc1c(NC(=O)c2cccc3ccccc23)sc2c1CCCC2 [JNK Inhibitor IX],0.53,
Cc1ccc(NCCCc2ccccc2)c(N)c1 [JSH-23],2.80,
COc1cc(-c2ncn(/C=C\C(=O)OC(C)C)n2)cc(C(F)(F)F)c1 [KPT-185],0.59,

Structure (SMILES),fold increase in IFN-β release [fold],further results
O=C(/C=C\n1cnc(-c2cc(C(F)(F)F)cc(C(F)(F)F)c2)n1)N1CC(F)(F)C1 [KPT-276],0.54,
O=c1cc(-c2cccc3c2Sc2ccccc2S3)oc(N2CCOCC2)c1 [KU-55933 (ATM Kinase Inhibitor)],0.33,
COC(=O)CCSCc1ccc(-c2onc(C)c2NC(=O)OC(C)c2ccccc2Cl)cc1 (stereo not drawn) [Ki16198],0.51,
Cc1noc(-c2ccc(CSCCC(=O)O)cc2)c1NC(=O)OC(C)c1ccccc1Cl (stereo not drawn) [Ki16425],1.41,
O=C(c1cn(Cc2cncn2Cc2ccc(Br)cc2)cc1-c1cccc2ccccc12)N1CCOCC1 [LB42708],1.35,
COc1ccccc1-c1cc(Nc2cccc(CS(N)(=O)=O)c2)ncn1 [LDC000067],1.43,
"Cc1c(C(=O)Nc2ccc(N3C[C@@H](C)O[C@@H](C)C3)nc2)cccc1-c1ccc(OC(F)(F)F)cc1 [LDE225 (NVP-LDE225, Erismodegib), Erismodegib]",1.31,
c1cc(-c2cnn3cc(-c4ccc(N5CCNCC5)cc4)cnc23)c2cccnc2c1 [LDN-212854],0.33,
C[C@H](NC(=O)[C@@H](O)c1cc(F)cc(F)c1)C(=O)N[C@@H]1C(=O)N(C)c2ccccc2-c2ccccc21 [LY411575],0.26,
Cc1cccc(-c2nn3c(c2-c2ccnc4ccc(C(N)=O)cc24)CCC3)n1 [LY2157299],2.50,
CC(C)(C)Cn1c(N)nc2ccc(-c3[nH]c(C(C)(C)C)nc3-c3ccc(F)cc3)nc21 [LY2228820],5.15,
Cc1cnc(NC(=O)Nc2cc(Br)c(C)cc2OC[C@@H]2CNCCO2)cn1 [LY2603618],1.08,
Cc1cc(Nc2cc(CN3CCOCC3)c3nc(C)c(Cc4ccc(Cl)cc4F)n3n2)n[nH]1 [LY2784544],2.09,
CC(CCc1ccccc1)NCC(O)c1ccc(O)c(C(N)=O)c1 (stereo not drawn) [Labetalol HCl],2.96,
O=C(C[S+]([O-])Cc1ccco1)NC/C=C\COc1cc(CN2CCCCC2)ccn1 (stereo not drawn) [Lafutidine],2.85,
"Nc1cccc2c1CN(C1CCC(=O)NC1=O)C2=O (stereo not drawn) [Lenalidomide (CC-5013), Lenalidomide]",1.09,
N#Cc1ccc(C(c2ccc(C#N)cc2)n2cncn2)cc1 [Letrozole],0.61,
CCN1CCC[C@H]1CNC(=O)c1cc(S(N)(=O)=O)ccc1OC [Levosulpiride],1.91,
CCN(CC)CC(=O)Nc1c(C)cccc1C [Lidocaine],9.58,3′3′-cGAMP-induced IFNβ release: promoted
CC#CCn1c(N2CCC[C@@H](N)C2)nc2c1c(=O)n(Cc1nc(C)c3ccccc3n1)c(=O)n2C [Linagliptin],2.07,
Nc1nc(OCc2cc(Br)cs2)c2[nH]cnc2n1 [Lomeguatrib],1.27,
CCOC(=O)N1CCC(=C2c3ccc(Cl)cc3CCc3cccnc32)CC1 [Loratadine],3.65,
"CCCCc1nc(Cl)c(CO)n1Cc1ccc(-c2ccccc2-c2nn[nH]n2)cc1 [Losartan Potassium (DuP 753), Losartan Potassium]",1.35,

Structure (SMILES),fold increase in IFN-β release [fold],further results
"Cc1c(F)cc(C(=O)NC2CC2)cc1-c1ccc(C(=O)NCC(C)(C)C)cn1 [Losmapimod (GW856553X), Losmapimod]",1.20,
CC[C@H](C)C(=O)O[C@H]1C[C@@H](C)C=C2C=C[C@H](C)[C@H](CC[C@@H]3C[C@@H](O)CC(=O)O3)[C@H]21 [Lovastatin],1.22,
"CC(C)CCNC(=O)[C@H](CC(C)C)NC(=O)[C@H]1O[C@@H]1C(=O)O [Loxistatin Acid (E-64C), Loxistatin Acid]",0.70,
C=CCn1c(=O)c2cnc(Nc3ccc(N4CCN(C)CC4)cc3)nc2n1-c1cccc(C(C)(C)O)n1 [MK-1775],4.54,
Cl.Cl.NC1(c2ccc(-c3nc4ccn5c(=O)[nH]nc5c4cc3-c3ccccc3)cc2)CCC1 [MK-2206 2HCl],1.02,
C[C@](O)(COc1ccc(C#N)cc1)C(=O)Nc1ccc(C#N)c(C(F)(F)F)c1 [MK-2866 (GTx-024)],1.47,
O=C(O)Cn1nnc(-c2cc(N3CCC(Oc4cc(F)ccc4Br)CC3)no2)n1 [MK-8245],0.42,
COc1ccc(CNCc2cccc3ccccc23)cc1.Cl [ML133 HCl],0.59,
CCCC(=O)Nc1cccc(NC(=O)c2ccccc2Br)c1 [ML161],0.95,
Cc1cnc(-c2ccccc2C(C)C)nc1NCc1ccc(-n2ccnn2)cc1 [ML323],0.43,
COc1ccc(-c2cnc3c(-c4cccc5ncccc45)cnn3c2)cc1 [ML347],1.95,
CC(C)C[C@H](NC(=O)CNC(=O)c1cc(Cl)ccc1Cl)B(O)O [MLN2238],4.76,
O=C(O)c1ccc(Nc2ncc3c(n2)-c2ccc(Cl)cc2C(c2c(F)cccc2F)=NC3)cc1 [MLN8054],0.77,
CCC(CC)(NC(=O)C(C)C)C(=O)N[C@@H](CCCN=C(N)N)C(=O)NC1(C(=O)NC(c2ccc(F)cc2)c2ccc(F)cc2)CCCC1 [MM-102],2.32,
S=C=Nc1cccc(NC(=S)NCCCCNC(=S)Nc2cccc(N=C=S)c2)c1 [MRS 2578],1.31,
COc1cc(-n2c(=S)[nH]c3ccccc3c2=O)c(Cl)cc1Cl [Mdivi-1],2.10,
CC12CC3CC(C)(C1)CC(N)(C3)C2 [Memantine HCl],2.60,
CN(Cc1cnc2nc(N)nc(N)c2n1)c1ccc(C(=O)N[C@@H](CCC(=O)O)C(=O)O)cc1 [Methotrexate],0.68,
CCN(CC)CCNC(=O)c1cc(Cl)c(N)cc1OC [MetoclopraMide HCl],2.14,
Nc1nc(CC(=O)Nc2ccc(CCNC[C@H](O)c3ccccc3)cc2)cs1 [Mirabegron],0.69,
"O=C(NCCN1CCOCC1)c1ccc(Cl)cc1 [Moclobemide (Ro 111163), Moclobemide]",1.88,
"FC(F)(F)c1ccc(/C=C/c2nc(COc3ccc(CCCCn4ccnn4)cc3)co2)cc1 [Mubritinib (TAK 165), Mubritinib]",0.56,
